Target: T1, MerTK (Homo sapiens, UniProt Q12866)
T1 construct: endogenous in cells; host or cells: Jurkat cells
T1 sequence (Q12866 21-999): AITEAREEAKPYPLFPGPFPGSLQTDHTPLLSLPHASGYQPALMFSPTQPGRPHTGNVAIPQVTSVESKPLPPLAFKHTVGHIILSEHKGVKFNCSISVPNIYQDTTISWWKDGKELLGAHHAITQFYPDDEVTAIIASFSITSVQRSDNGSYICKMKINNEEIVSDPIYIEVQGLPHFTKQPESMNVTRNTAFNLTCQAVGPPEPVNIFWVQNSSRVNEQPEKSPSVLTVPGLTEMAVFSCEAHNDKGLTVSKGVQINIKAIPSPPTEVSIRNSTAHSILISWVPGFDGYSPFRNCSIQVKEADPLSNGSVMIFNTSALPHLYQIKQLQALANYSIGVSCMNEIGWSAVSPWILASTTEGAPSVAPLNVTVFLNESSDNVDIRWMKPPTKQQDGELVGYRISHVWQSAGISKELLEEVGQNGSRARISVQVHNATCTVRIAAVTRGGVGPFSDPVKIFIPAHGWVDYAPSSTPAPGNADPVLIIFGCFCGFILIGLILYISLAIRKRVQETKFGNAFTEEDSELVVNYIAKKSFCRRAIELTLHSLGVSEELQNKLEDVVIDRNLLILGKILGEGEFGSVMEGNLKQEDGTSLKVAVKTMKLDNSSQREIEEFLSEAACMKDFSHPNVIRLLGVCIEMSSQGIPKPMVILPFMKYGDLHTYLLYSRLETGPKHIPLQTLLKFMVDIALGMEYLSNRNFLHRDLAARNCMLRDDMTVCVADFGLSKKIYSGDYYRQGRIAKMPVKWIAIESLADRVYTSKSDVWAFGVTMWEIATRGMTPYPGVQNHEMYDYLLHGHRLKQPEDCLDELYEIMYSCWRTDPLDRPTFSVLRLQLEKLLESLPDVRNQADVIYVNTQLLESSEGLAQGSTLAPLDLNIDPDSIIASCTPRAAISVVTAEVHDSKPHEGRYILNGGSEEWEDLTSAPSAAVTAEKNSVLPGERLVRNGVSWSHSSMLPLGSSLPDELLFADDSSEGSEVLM
Test: MerTk degradation in Jurkat cells (Western blot)
Type: cell-based
Conditions: 0.001-1 μM, 4 hour-incubation at 37° C.; for Dmax: Jurkat, 4 h, read-out: Jurkat Max % MerTK Degradation
Method in brief: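 Jurkat cells treated 4 h at 37 °C with compound at 0.001-1 μM final. RIPA lysates quantified by BCA, then MerTK probed by Western blot against actin loading control with IR-dye secondaries and Odyssey imaging.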

## Cn1c(=O)n(C2CCC(=O)NC2=O)c2ccc(CCCOCCN3CCCC(N4CCN(Cc5ccc(-c6cn([C@H]7CC[C@H](O)CC7)c7nc(NCCC(F)(F)F)ncc67)cc5)CC4)C3)cc21.O=CO (stereo partly drawn) [I-95, 3-(3-methyl-2-oxo-5-[3-[2-(3-[4-[(4-[7-[trans-4-hydroxycyclohexyl]-2-[(3,3,3-trifluoropropyl)amino]-7H-pyrrolo[2,3-d]pyrimidin-5-yl]phenyl)methyl]piperazin-1-yl]piperidin-1-yl)ethoxy]propyl]-2,3-dihydro-1H-1,3-benzodiazol-1-y1)piperidine-2,6-dione; formic acid]
  Jurkat Max % MerTK Degradation: A (maximum MerTK degradation greater than 50%)

## O=C1CC[C@H](n2c3ccc(NCCOCCOCCN4CCN(Cc5ccc(-c6cn([C@H]7CC[C@H](O)CC7)c7nc(NCCC(F)(F)F)ncc67)cc5)CC4)cc3c3cccnc32)C(=O)N1 [I-133, 3-[6-([2-[2-(2-[4-[(4-[7-[trans-4-hydroxycyclohexyl]-2-[(3,3,3-trifluoropropyl)amino]pyrrolo[2,3-d]pyrimidin-5-yl]phenyl)methyl]piperazin-1-yl]ethoxy)ethoxy]ethyl]amino)pyrido[2,3-b]indol-9-yl]piperidine-2,6-dione; formic acid]
  Dmax: > 50%

## CCC[C@H](C)Nc1ncc2c(n1)n([C@H]1CC[C@H](O)CC1)cc2[C@H]1CC[C@H](CN2CCN(CCCOC3CCN(Cc4ccc5c(c4)n(C)c(=O)n5C4CCC(=O)NC4=O)CC3)CC2)CC1 (stereo partly drawn) [I-208, 3-[3-methyl-2-oxo-5-([4-[3-(4-[[trans-4-[2-[(2S)-pentan-2-ylamino]-7-[trans-4-hydroxycyclohexyl]pyrrolo[2,3-d]pyrimidin-5-yl]cyclohexyl]methyl]piperazin-1-yl)propoxy]piperidin-1-yl]methyl)-1,3-benzodiazol-1-yl]piperidine-2,6-dione]
  Dmax: > 50%

## Cn1c(=O)n([C@H]2CCC(=O)NC2=O)c2ccc(CCCOCCCCN3CCN(Cc4ccc(-c5cn(C6CCCCC6)c6nc(NCCC(F)(F)F)ncc56)cc4)CC3)cc21 [I-84, 3-[5-[3-(4-[4-[(4-[7-cyclohexy1-2-[(3,3,3-trifluoropropyl)amino]-7H-pyrrolo[2,3-d]pyrimidin-5-y1]phenyl)methyl]piperazin-1-yl]butoxy)propyl]-3-methyl-2-oxo-2,3-dihydro-1H-1,3-benzodiazol-1-yl]piperidine-2,6-dione]
  Dmax: > 50%

## Cn1c(=O)n([C@H]2CCC(=O)NC2=O)c2ccc(CCCOCCOCCN3CCN(Cc4ccc(-c5cn([C@H]6CC[C@H](O)CC6)c6nc(NCCC(F)(F)F)ncc56)cc4)CC3)cc21 [I-56, 3-(3-methyl-2-oxo-5-[3-[2-(2-[4-[(4-[7-[trans-4-hydroxycyclohexy1]-2-[(3,3,3-trifluoropropyl)amino]-7H-pyrrolo[2,3-d]pyrimidin-5-yl]phenyl)methyl]piperazin-1-yl]ethoxy)ethoxy]propyl]-2,3-dihydro-1H-1,3-benzodiazol-1-yl)piperidine-2,6-dione]
  Dmax: > 50%

## C[C@H](CC(F)(F)F)Nc1ncc2c(-c3ccc(CN4CCN(CCCO[C@H]5CCN(Cc6ccc7c(c6)n(C)c(=O)n7C6CCC(=O)NC6=O)C5)CC4)cc3)cn([C@H]3CC[C@H](O)CC3)c2n1 (stereo partly drawn) [I-198]
  Jurkat Max % MerTK Degradation: A (maximum MerTK degradation greater than 50%)

## Cn1c(=O)n([C@H]2CCC(=O)NC2=O)c2ccc(CCO[C@H]3C[C@H](N4CCN(Cc5ccc(-c6cn([C@H]7CC[C@H](O)CC7)c7nc(NCCC(F)(F)F)ncc67)cc5)CC4)C3)cc21 [I-170, 3-(3-methyl-2-oxo-5-[2-[trans-3-[4-[(4-[7-[trans-4-hydroxycyclohexy1]-2-[(3,3,3-trifluoropropyl)amino]pyrrolo[2,3-d]pyrimidin-5-yl]phenyl)methyl]piperazin-1-yl]cyclobutoxy]ethyl]-1,3-benzodiazol-1-y1)piperidine-2,6-dione; formic acid]
  Dmax: > 50%

## C[C@@H](CC(F)(F)F)Nc1ncc2c(-c3ccc(CN4CCN(CCCOCCCc5ccc6c(c5)n(C)c(=O)n6C5CCC(=O)NC5=O)CC4)cc3)cn([C@H]3CC[C@H](O)CC3)c2n1 (stereo partly drawn) [I-110, 3-[3-methyl-2-oxo-5-[3-(3-[4-[(4-[7-[(1r,4r)-4-hydroxycyclohexyl]-2-[[(2S)-4,4,4-trifluorobutan-2-yl]amino]-7H-pyrrolo[2,3-d]pyrimidin-5-yl]phenyl)methyl]piperazin-1-yl]propoxy)propyl]-2,3-dihydro-1H-1,3-benzodiazol-1-y1]piperidine-2,6-dione]
  Dmax: > 50%

## Cn1c(=O)n([C@H]2CCC(=O)NC2=O)c2ccc(CCn3cc(CN4CCN(Cc5ccc(-c6cn([C@H]7CC[C@H](O)CC7)c7nc(NCCC(F)(F)F)ncc67)cc5)CC4)nn3)cc21 [I-114, 3-(3-methyl-2-oxo-5-[12-[4-([4-1(4-[17-[trans-4-hydroxycyclohexyl]-2-[(3,3,3-trifluoropropyl)aminol-7H-pyrrolo[2,3-d]pyrimidin-5-yl]phenyl)methyl]piperazin-1-yl]methyl)-1H-1,2,3-triazol-1-yl]ethyl]-2,3-dihydro-1H-1,3-benzodiazol-1-yl)piperidine-2,6-dione]
  Dmax: > 50%

## Cn1c(=O)n([C@H]2CCC(=O)NC2=O)c2ccc(CCCOCCCOCCN3CCN(Cc4ccc(-c5cn([C@H]6CC[C@H](O)CC6)c6nc(NCCC7CC7)ncc56)cc4)CC3)cc21 [I-70, 3-(5-[3-[3-(2-[4-[(4-[2-[(2-cyclopropylethyl)amino]-7-[trans-4-hydroxycyclohexyl]-7H-pyrrolo[2,3-d]pyrimidin-5-yl]phenyl)methyl]piperazin-1-yl]ethoxy)propoxy]propy1]-3-methyl-2-oxo-2,3-dihydro-1H-1,3-benzodiazol-1-y1)piperidine-2,6-dione]
  Dmax: > 50%

## Cn1c(=O)n([C@H]2CCC(=O)NC2=O)c2ccc(CCCN3CCC(C4CCN(Cc5ccc(-c6cn([C@H]7CC[C@H](O)CC7)c7nc(NCCC(F)(F)F)ncc67)cc5)CC4)CC3)cc21 [I-137, 3-[3-methyl-2-oxo-5-(3-[1-[(4-[7-[trans-4-hydroxycyclohexyl]-2-[(3,3,3-trifluoropropyl)amino]pyrrolo[2,3-d]pyrimidin-5-yl]phenyl)methyl]-[4,4-bipiperidin]-1-y1]propyl)-1,3-benzodiazol-1-yl]piperidine-2,6-dione]
  Dmax: > 50%

## Cn1c(=O)n([C@H]2CCC(=O)NC2=O)c2ccc(CN3CC(OCCN4CCN(Cc5ccc(-c6cn([C@H]7CC[C@H](O)CC7)c7nc(NCCC(F)(F)F)ncc67)cc5)CC4)C3)cc21 [I-109, 3-(3-methyl-2-oxo-5-[[3-(2-[4-[(4-[7-[trans-4-hydroxycyclohexyl]-2-[(3,3,3-trifluoropropyl)amino]-7H-pyrrolo[2,3-d]pyrimidin-5-y1]phenyl)methyl]piperazin-1-yl]ethoxy)azetidin-1-yl]methyl]-2,3-dihydro-1H-1,3-benzodiazol-1-y1)piperidine-2,6-dione]
  Dmax: < 20%

## CCCCNc1ncc2c(-c3ccc([C@@H](C)N4CCN(CCCOCCCc5ccc6c(c5)n(C)c(=O)n6C5CCC(=O)NC5=O)CC4)cc3)cn([C@H]3CC[C@H](O)CC3)c2n1 (stereo partly drawn) [I-103, 3-[5-[3-(3-[4-[(1R)-1-[4-[2-(butylamino)-7-[trans-4-hydroxycyclohexyl]-7H-pyrrolo[2,3-d]pyrimidin-5-yl]phenyl]ethyl]piperazin-1-yl]propoxy)propyl]-3-methyl-2-oxo-2,3-dihydro-1H-1,3-benzodiazol-1-yl]piperidine-2,6-dione]
  Dmax: > 50%

## Cn1c(=O)n([C@H]2CCC(=O)NC2=O)c2ccc(CCCOCCCN3CCN(Cc4ccc(-c5cn([C@H]6CC[C@H](O)CC6)c6nc(NCCC(F)(F)F)ncc56)cc4)CC3)cc21 [I-73, 3-[3-methyl-2-oxo-5-[3-(3-[4-[(4-[7-[trans-4-hydroxycyclohexyl]-2-[(3,3,3-trifluoropropyl)amino]-7H-pyrrolo[2,3-d]pyrimidin-5-yl]phenyl)methyl]piperazin-1-yl]propoxy)propyl]-2,3-dihydro-1H-1,3-benzodiazol-1-yl]piperidine-2,6-dione; formic acid]
  Dmax: > 50%

## CCC[C@H](C)Nc1ncc2c(-c3ccc(CN4CCN(CCCOC5CCN(Cc6ccc7c(c6)n(C)c(=O)n7C6CCC(=O)NC6=O)CC5)CC4)cc3)cn([C@H]3CC[C@H](O)CC3)c2n1 (stereo partly drawn) [I-189, 3-(3-methyl-2-oxo-5-[[4-(3-[4-[(4-[2-[(2S)-pentan-2-ylamino]-7-[trans-4-hydroxycyclohexyl]pyrrolo[2,3-d]pyrimidin-5-yl]phenyl)methyl]piperazin-1-yl]propoxy)piperidin-1-y1]methyl]-1,3-benzodiazol-1-y1)piperidine-2,6-dione; formic acid]
  Dmax: > 50%
